Data reported in patent US11547681B2, “N-acylethanolamide derivatives and uses thereof” (ELIEM THERAPEUTICS, INC., priority 2016, dated 2023).
Like-named read-outs stand apart in the source and are kept apart here.

Test: Simulated intestinal fluid (SIF) stability in the presence of various enzymes
Assay type: in vitro ADME
Settings: for % Remaining of Initial: n = 1
Procedure, shortened: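 Test article at 1 μM final was dosed into pre-warmed (37 °C) simulated intestinal fluid, potassium phosphate buffer at pH 6.8, spiked with individual enzymes. Timed samples were held at 4 °C, then centrifuged and quantified against calibration standards in matched matrix.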

[1] = SIF + Carboxypeptidase A, 0 min, 1 μM
[2] = SIF + Carboxypeptidase A, 15 min, 1 μM
[3] = SIF + Carboxypeptidase A, 30 min, 1 μM
[4] = SIF + Carboxypeptidase A, 60 min, 1 μM
[5] = SIF + Carboxypeptidase A, 120 min, 1 μM
[6] = SIF + Carboxypeptidase B, 0 min, 1 μM
[7] = SIF + Carboxypeptidase B, 15 min, 1 μM
[8] = SIF + Carboxypeptidase B, 30 min, 1 μM
[9] = SIF + Carboxypeptidase B, 60 min, 1 μM
[10] = SIF + Carboxypeptidase B, 120 min, 1 μM
[11] = SIF + Chymotrypsin, 0 min, 1 μM
[12] = SIF + Chymotrypsin, 15 min, 1 μM
[13] = SIF + Chymotrypsin, 30 min, 1 μM
[14] = SIF + Chymotrypsin, 60 min, 1 μM
[15] = SIF + Chymotrypsin, 120 min, 1 μM
[16] = SIF + Pancreatin, 120 min, 1 μM
[17] = simulated intestinal fluid with carboxypeptidase A, pH 6.8, SIF + Carboxypeptidase A, 1 μM, read-out: Half-life
[18] = simulated intestinal fluid with carboxypeptidase B, pH 6.8, SIF + Carboxypeptidase B, 1 μM, read-out: Half-life
[19] = simulated intestinal fluid with chymotrypsin, pH 6.8, SIF + Chymotrypsin, 1 μM, read-out: Half-life
[20] = simulated intestinal fluid with elastase, pH 6.8, SIF + Elastase, 1 μM, read-out: Half-life
[21] = simulated intestinal fluid with pancreatin, pH 6.8, SIF + Pancreatin, 1 μM, read-out: Half-life
[22] = simulated intestinal fluid with trypsin, pH 6.8, SIF + Trypsin, 1 μM, read-out: Half-life

CCCCCCCCCCCCCCCC(=O)NCCOC(=O)CCC(=O)OCC(COC(=O)CCC)OC(=O)CCC (stereo not shown) [Compound I-11]
% Remaining of Initial (n = 1) [1]: 100% | % Remaining of Initial (n = 1) [2]: 73% | % Remaining of Initial (n = 1) [3]: 78% | % Remaining of Initial (n = 1) [4]: 42% | % Remaining of Initial (n = 1) [5]: 18% | % Remaining of Initial (n = 1) [6]: 100% | % Remaining of Initial (n = 1) [7]: 68% | % Remaining of Initial (n = 1) [8]: 50% | % Remaining of Initial (n = 1) [9]: 33% | % Remaining of Initial (n = 1) [10]: 9.6% | % Remaining of Initial (n = 1) [11]: 100% | % Remaining of Initial (n = 1) [12]: 84% | % Remaining of Initial (n = 1) [13]: 63% | % Remaining of Initial (n = 1) [14]: 42% | % Remaining of Initial (n = 1) [15]: 21% | % Remaining of Initial (n = 1) (SIF + Elastase, 0 min, 1 μM): 100% | % Remaining of Initial (n = 1) (SIF + Elastase, 15 min, 1 μM): 70% | % Remaining of Initial (n = 1) (SIF + Elastase, 30 min, 1 μM): 50% | % Remaining of Initial (n = 1) (SIF + Elastase, 60 min, 1 μM): 33% | % Remaining of Initial (n = 1) (SIF + Elastase, 120 min, 1 μM): 17% | % Remaining of Initial (n = 1) (SIF + Pancreatin, 0 min, 1 μM): 100% | % Remaining of Initial (n = 1) (SIF + Pancreatin, 15 min, 1 μM): <1.0% | % Remaining of Initial (n = 1) (SIF + Pancreatin, 30 min, 1 μM): <1.0% | % Remaining of Initial (n = 1) (SIF + Pancreatin, 60 min, 1 μM): <1.0% | % Remaining of Initial (n = 1) [16]: <1.0% | % Remaining of Initial (n = 1) (SIF + Trypsin, 0 min, 1 μM): 100% | % Remaining of Initial (n = 1) (SIF + Trypsin, 15 min, 1 μM): 77% | % Remaining of Initial (n = 1) (SIF + Trypsin, 30 min, 1 μM): 62% | % Remaining of Initial (n = 1) (SIF + Trypsin, 60 min, 1 μM): 45% | % Remaining of Initial (n = 1) (SIF + Trypsin, 120 min, 1 μM): 23% | half-life at 1 μM [17]: 53 min | half-life at 1 μM [18]: 34 min | half-life at 1 μM [19]: 50 min | half-life at 1 μM [20]: 37 min | half-life at 1 μM [21]: < 1 min | half-life at 1 μM [22]: 53 min

CCCCC/C=C\C/C=C\CCCCCCCC(=O)OCC(COC(=O)CCC(=O)OCCNC(=O)CCCCCCCCCCCCCCC)OC(=O)CCCCCCC/C=C\C/C=C\CCCCC (stereo not shown) [Compound I-13]
% Remaining of Initial (n = 1) [1]: 100% | % Remaining of Initial (n = 1) [2]: 77% | % Remaining of Initial (n = 1) [3]: 53% | % Remaining of Initial (n = 1) [4]: 27% | % Remaining of Initial (n = 1) [5]: 37% | % Remaining of Initial (n = 1) [6]: 100% | % Remaining of Initial (n = 1) [7]: 65% | % Remaining of Initial (n = 1) [8]: 31% | % Remaining of Initial (n = 1) [9]: 14% | % Remaining of Initial (n = 1) [10]: 8.7% | % Remaining of Initial (n = 1) [11]: 100% | % Remaining of Initial (n = 1) [12]: 82% | % Remaining of Initial (n = 1) [13]: 67% | % Remaining of Initial (n = 1) [14]: 45% | % Remaining of Initial (n = 1) [15]: 15% | % Remaining of Initial (n = 1) (SIF + Elastase, 0 min, 1 μM): 100% | % Remaining of Initial (n = 1) (SIF + Elastase, 15 min, 1 μM): 41% | % Remaining of Initial (n = 1) (SIF + Elastase, 30 min, 1 μM): 16% | % Remaining of Initial (n = 1) (SIF + Elastase, 60 min, 1 μM): 5.6% | % Remaining of Initial (n = 1) (SIF + Elastase, 120 min, 1 μM): 5.0% | % Remaining of Initial (n = 1) (SIF + Pancreatin, 0 min, 1 μM): 100% | % Remaining of Initial (n = 1) (SIF + Pancreatin, 15 min, 1 μM): 1.3% | % Remaining of Initial (n = 1) (SIF + Pancreatin, 30 min, 1 μM): 3.7% | % Remaining of Initial (n = 1) (SIF + Pancreatin, 60 min, 1 μM): 3.4% | % Remaining of Initial (n = 1) [16]: <1.0% | % Remaining of Initial (n = 1) (SIF + Trypsin, 0 min, 1 μM): 100% | % Remaining of Initial (n = 1) (SIF + Trypsin, 15 min, 1 μM): 78% | % Remaining of Initial (n = 1) (SIF + Trypsin, 30 min, 1 μM): 70% | % Remaining of Initial (n = 1) (SIF + Trypsin, 60 min, 1 μM): 55% | % Remaining of Initial (n = 1) (SIF + Trypsin, 120 min, 1 μM): <1.0% | half-life at 1 μM [17]: 47 min | half-life at 1 μM [18]: 20 min | half-life at 1 μM [19]: 49 min | half-life at 1 μM [20]: 12 min | half-life at 1 μM (simulated intestinal fluid with pancreatin, pH 6.8, SIF + Pancreatin, 1 μM, outside the sampled time range, read-out: Half-life, calculated (in parentheses)): 2.5 min | half-life at 1 μM [21]: < 15 min | half-life at 1 μM [22]: 47 min

CCCCCCCCCCCCCCCC(=O)NCCOC(=O)CCC(=O)OC(COC(=O)CCC)COC(=O)CCC [Compound I-16]
% Remaining of Initial [1]: 100% | % Remaining of Initial [2]: 88% | % Remaining of Initial [3]: 74% | % Remaining of Initial [4]: 60% | % Remaining of Initial [5]: 32% | % Remaining of Initial [6]: 100% | % Remaining of Initial [7]: 94% | % Remaining of Initial [8]: 87% | % Remaining of Initial [9]: 68% | % Remaining of Initial [10]: 37% | % Remaining of Initial [11]: 100% | % Remaining of Initial [12]: 103% | % Remaining of Initial [13]: 90% | % Remaining of Initial [14]: 68% | % Remaining of Initial [15]: 35% | % Remaining of Initial (SIF + Elastase, 0 min, 1 μM): 100% | % Remaining of Initial (SIF + Elastase, 15 min, 1 μM): 72% | % Remaining of Initial (SIF + Elastase, 30 min, 1 μM): 50% | % Remaining of Initial (SIF + Elastase, 60 min, 1 μM): 27% | % Remaining of Initial (SIF + Elastase, 120 min, 1 μM): 7.1% | % Remaining of Initial (SIF + Trypsin, 0 min, 1 μM): 100% | % Remaining of Initial (SIF + Trypsin, 15 min, 1 μM): 89% | % Remaining of Initial (SIF + Trypsin, 30 min, 1 μM): 82% | % Remaining of Initial (SIF + Trypsin, 60 min, 1 μM): 62% | % Remaining of Initial (SIF + Trypsin, 120 min, 1 μM): 37% | half-life at 1 μM (simulated intestinal fluid with carboxypeptidase A, pH 6.8, SIF + Carboxypeptidase A, read-out: Half-life): 75 min | half-life at 1 µM (simulated intestinal fluid with carboxypeptidase B, pH 6.8, SIF + Carboxypeptidase B, read-out: Half-life): 89 min | half-life at 1 μM (simulated intestinal fluid with chymotrypsin, pH 6.8, SIF + Chymotrypsin, read-out: Half-life): 84 min | half-life at 1 μM (simulated intestinal fluid with elastase, pH 6.8, SIF + Elastase, read-out: Half-life): 31 min | half-life at 1 μM (simulated intestinal fluid with trypsin, pH 6.8, SIF + Trypsin, read-out: Half-life): 85 min
